The source of these data is patent US20080208071A1, “Measurement of Gastric Acid Secretion” (THE LEEDS TEACHING HOSPITALS NHS TRUST, priority 2005, published 2008).

Data set [1] relates to gastric acid secretion. The data set can be described thus: 13C calcium carbonate breath test, Example 2 (initial 2 g, then 500 mg every 5 minutes over 3 hours). The following applies: human volunteer; oral 2 g then 500 mg calcium carbonate (10 atom % 13C) every 5 minutes over 3 hours; two experiments; FIG. 4.
Data set [2] relates to gastric acid secretion. As to the kind of experiment: 13C calcium carbonate breath test, Example 1 (250 mg every 15 minutes over 4 hours). The note with it: human volunteer; oral 250 mg calcium carbonate (10 atom % 13C) every 15 minutes over 4 hours; two experiments; FIG. 1.
Protocol: At 10 minute intervals, samples of exhaled (expired) air were obtained from the subject by breathing into a suitable collection vessel such as a test tube. The expired air was subjected to mass spectrometry to measure the ratio of ^13C to ^12C in the exhaled carbon dioxide.
In a second experiment the subject was treated with omeprazole 20 mg daily for two weeks and the experiment repeated twice under otherwise identical conditions.
The subject then did two further experiments again under otherwise identical conditions but now including a daily dosage of 40 mg of omeprazole.

With `O=C([O-])[O-].[Ca+2]` [^13C labelled calcium carbonate, calcium carbonate], the “time at which the rise in 13C in exhaled carbon dioxide begins to plateau” value with gastric acid secretion [1] and in the data set with gastric acid secretion [2] was “about 120 minutes” in each case.
